Experimental data from patent publication US10611748B2, “Xanthone derivatives for the treatment of hepatitis B virus disease” (Hoffmann-La Roche Inc., priority 2017, dated 2020).

Key:
[1] = system: extracellular HBV DNA in HBV-infected PHH; assay: Cryopreserved primary human hepatocytes (PHH) assay, HBV DNA; type: cell-based; conditions: Hepatitis B virus, Hepatocyte, 216 h; cryopreserved PHH infected with HBV, 9 days post-compound treatment, quantitative PCR
Experimental: Cryopreserved PHH (BioreclamationIVT, Lot YJM) was thawed at 37° C. and gently transferred into pre-warmed InVitroGRO HT medium (BioreclamationIVT, Cat. S03317). The mixture was centrifuged at 70 relative centrifugal force (RCF) for 3 minutes at RT, and the supernatant was discarded. Pre-warmed InVitroGRO CP medium (BioreclamationIVT, Cat # S03316) was added to the cell pellet to gently re-suspend cells. The cells were seeded at the density of 5.8×10^4 cells per well to collagen I coated 96-well plate (Gibco, Cat. A1142803) with the InVitroGRO CP medium. All plates were incubated at 37° C. with 5% CO2 and 85% humidity.
At 20 hours after plating, the medium was changed to PHH culture medium (Dulbecco's Modified Eagle Medium (DMEM)/F12 (1:1) (Gibco, Cat. 11320-033), 10% fetal bovine serum (Gibco Cat. 10099141), 100 U/mL penicillin, 100 μg/mL streptomycin (Gibco, Cat. 151401-122), 5 ng/mL human epidermal growth factor (Invitrogen Cat. PHG0311L), 20 ng/mL dexamethasone (Sigma, Cat. D4902) and 250 ng/mL human recombinant insulin (Gibco, Cat. 12585-014)). And the cells were incubated at 37° C. with 5% CO2 and 85% humidity for 4 hours. The medium was then changed to pre-warmed PHH culture medium containing 4% polyethylene glycol (PEG) MW8000 (Sigma, Cat. P1458-50ML) and 1% DMSO (Sigma, Cat. D2650). 5.8×10^6 genomic equivalents of HBV were added into the medium.
At 24 hours post-infection, the cells were gently washed with PBS and refreshed with PHH culture medium supplemented with 1% DMSO, and 0.25 mg/mL Matrix gel (Corning, Cat. 356237) at 200 μL per well. All plates were immediately placed in at 37° C. CO2 incubator.
24 hours later, serial dilutions of compounds made with DMSO were further diluted with the same culture medium (PHH culture medium supplemented with 1% DMSO and 0.25 mg/mL Matrix gel as described above) before they were added to the cells to reach desired final compound concentrations and 1% DMSO concentration. The medium containing the compounds were refreshed every three days.
At 9 days post-compound treatment, extracellular HBsAg level were measured with Chemiluminescence Immuno Assay (CLIA) kit (Autobio, HBsAg Quantitative CLIA). Extracellular HBV DNA was extracted by MagNA Pure 96 system (Roche) and then determined by quantitative PCR with the following primers and probe: HBV-Forward Primer (SEQ ID NO:2): […] (5′ to 3′); HBV-Reverse Primer (SEQ ID NO:3): […](5′ to 3′); HBV-Probe: 5′+tetramethylrhodamine+SEQ ID NO:4+black hole quencher 2-3′, wherein SEQ ID NO:4 is […].
HBsAg IC50 and HBV DNA IC50 values were derived from the dose-response curve using 4 parameter logistic curve fit method.

[2] = system: extracellular HBeAg level (surrogate marker for cccDNA) in HepDES19 cells; assay: HepDES19 primary screen assay; type: cell-based, HBV; conditions: Hepatitis B virus, 120 h, 5 days compound incubation, HBeAg ELISA
Outline: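 HepDES19 cells, Tet-withdrawn 8 days to induce pgRNA, then seeded 24 h before dosing with half-log compound dilutions (1% DMSO final) for 5 days at 37 °C. Extracellular HBeAg by ELISA, viability by CCK-8; IC50 from 4-parameter logistic fit.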

SMILES | IC50 [1] [nM] | IC50 [2] [nM]
O=C(O)[C@H]1CCN(c2ccc3c(=O)c4cccc(Cl)c4oc3c2)C1 [Example 4, (3S)-1-(5-chloro-9-oxo-xanthen-3-yl)pyrrolidine-3-carboxylic acid] | 1930 | 2180
O=C(O)[C@@H]1CCN(c2ccc3c(=O)c4cccc(Cl)c4oc3c2)C1 [Example 3, (3R)-1-(5-chloro-9-oxo-xanthen-3-yl)pyrrolidine-3-carboxylic acid] | 1610 | 1240
O=C(O)C1CCN(c2ccc3c(=O)c4cccc(Cl)c4oc3c2)C1 (stereo not drawn) [Example 2, 1-(5-chloro-9-oxo-xanthen-3-yl)pyrrolidine-3-carboxylic acid] | 2300 | 2180
O=C(O)C1CCN(c2ccc3c(=O)c4cccc(F)c4oc3c2)C1 (stereo not drawn) [Example 5, 1-(5-fluoro-9-oxo-xanthen-3-yl)pyrrolidine-3-carboxylic acid] | 9620 | 3330
O=C(O)C1CCN(c2ccc3c(=O)c4c(Cl)ccc(Cl)c4oc3c2)C1 (stereo not drawn) [Example 26, 1-(5,8-dichloro-9-oxo-xanthen-3-yl)pyrrolidine-3-carboxylic Acid] | – | 2360
